From the supplement of paper PMC11208160

assay: recombinant UMI read abundance after kanamycin selection (control-corrected) (log10(CPM+1)); higher = more efficient recombination; extreme values may be limits of the assay; sequences stand for … in AGTGCAGAGAAAATCGGCCAGTTTTCTCTGCCTGCAGTCCGCATGCCGTGGGACCCCTTGGGTTCTAACCTGTTGCCTAGATTTATGCAGCGGACTGCCTTTCTCCCAAAGTGATAAACCGG…AGGTTGGTTTCACT; site = the 11-nt donor
Summary of the method: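 In Escherichia coli, a pool of donor and donor-binding-loop pairs, each with a 12-nt UMI, was tested for the IS621 bridge recombinase. Plating was on IPTG (0.07 mM) plus kanamycin, or without selection, in two replicates. Recombinant UMIs were amplified by PCR across the donor–target junction and sequenced, and counts were reported as log10(CPM+1) after averaging and control-derived scaling.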
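Also: IS621 bridge recombinase in Escherichia coli cells against a fixed T5 target plasmid.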

Sequence	recombinant UMI read abundance (log10)
CGAGGACCATGGACCGGTTTTCCCGGTAATCCGTATTTGGG (site AGAGGACCTCC)	0.00643
TTATAGGCATGGACCGGTTTTCCCGGTAATCCGTATTTGGA (site TTATAGGCTTC)	0.419
GTCCAAGCATGGACCGGTTTTCCCGGTAATCCGTATTTGAG (site ATCCAAGCTCT)	0.677
CTCTACACATGGACCGGTTTTCCCGGTAATCCGTATTTGTT (site CTCTACACTAG)	1.45
GGTACGTCATGGACCGGTTTTCCCGGTAATCCGTATTTGTG (site GGTACGTCTCA)	0.338
GCGAAAACATGGACCGGTTTTCCCGGTAATCCGTATTTGCT (site GAGAAAACTAG)	0
GATTATGCATGGACCGGTTTTCCCGGTAATCCGTATTTGGA (site AATTATGCTTC)	0.871
TAGCGCGCATGGACCGGTTTTCCCGGTAATCCGTATTTGAC (site TAGCGCGCTGT)	2.03
AGGAAGACATGGACCGGTTTTCCCGGTAATCCGTATTTGCA (site AAGAAGCCTTG)	0
AGCCTTACATGGACCGGTTTTCCCGGTAATCCGTATTTGAC (site AGCCTTACTGT)	2.52
CATTATGCATGGACCGGTTTTCCCGGTAATCCGTATTTGGA (site TATTATGCTTC)	0.208
GAATACACATGGACCGGTTTTCCCGGTAATCCGTATTTGCG (site GAATACACTCG)	2.66
GCCACTGCATGGACCGGTTTTCCCGGTAATCCGTATTTGCC (site GCTACTGCTGG)	0
ATCTATCCATGGACCGGTTTTCCCGGTAATCCGTATTTGAC (site ATCTATTCTGT)	0
CGATCGGCATGGACCGGTTTTCCCGGTAATCCGTATTTGTT (site CGATCGTCTAA)	0.324
CGATCGACATGGACCGGTTTTCCCGGTAATCCGTATTTGTT (site CGATCCACTAA)	0.0134
TTTCACACATGGACCGGTTTTCCCGGTAATCCGTATTTGGA (site TTTCACACTTC)	0.0104
GCGAAAACATGGACCGGTTTTCCCGGTAATCCGTATTTGCT (site GCTAAAACTAG)	0
TTGCGTTCATGGACCGGTTTTCCCGGTAATCCGTATTTGTC (site TTGCGTTCTGA)	0

Sequence	recombinant UMI read abundance (log10)
AGGAAGACATGGACCGGTTTTCCCGGTAATCCGTATTTGCA (site AGGACTACTTG)	0
CAGTCGACATGGACCGGTTTTCCCGGTAATCCGTATTTGGG (site CAGTCGACTCG)	0
AGGAAGACATGGACCGGTTTTCCCGGTAATCCGTATTTGCA (site CAGAAGACTTG)	1.43
GCGGAGGCATGGACCGGTTTTCCCGGTAATCCGTATTTGTG (site GGGGAGGCTCA)	0.333
ACTAGTGCATGGACCGGTTTTCCCGGTAATCCGTATTTGGT (site AGTAGTGCTAC)	0.424
ATGTAGGCATGGACCGGTTTTCCCGGTAATCCGTATTTGAC (site ATGTAGGCTGA)	2.33
TGGACGGCATGGACCGGTTTTCCCGGTAATCCGTATTTGGC (site TGGACGGCTGC)	1.89
GCGATAACATGGACCGGTTTTCCCGGTAATCCGTATTTGCT (site GCGAGAACTAG)	0
ATTGAGACATGGACCGGTTTTCCCGGTAATCCGTATTTGGG (site ATTGAGACTGC)	0
GATTGTACATGGACCGGTTTTCCCGGTAATCCGTATTTGAC (site GATTGAACTGT)	0
TATCATTCATGGACCGGTTTTCCCGGTAATCCGTATTTGGG (site TATCATTCTCC)	0.00534
ACAGTAGCATGGACCGGTTTTCCCGGTAATCCGTATTTGCA (site ACAGTAACTTG)	2.58
ACAGTAGCATGGACCGGTTTTCCCGGTAATCCGTATTTGCA (site ACAGTAGCTTG)	2.85
AGTGGAACATGGACCGGTTTTCCCGGTAATCCGTATTTGTT (site AGTGGAACTAA)	1.56
CGCGGTCCATGGACCGGTTTTCCCGGTAATCCGTATTTGCA (site CGCGGTCCTTG)	1.12
AGGTTACCATGGACCGGTTTTCCCGGTAATCCGTATTTGTG (site AGGTTTCCTCA)	0.00461
AGGTTCGCATGGACCGGTTTTCCCGGTAATCCGTATTTGTG (site AGGTTCACTCA)	0.217
TGGAAGACATGGACCGGTTTTCCCGGTAATCCGTATTTGCA (site AGGAAGACTTG)	1.64
